Measurements from US11046725B2, “Galactoside inhibitor of galectins” (GALECTO BIOTECH AB, priority 2018, dated 2021).
Like-named read-outs stand apart in the source and are kept apart here.

Assays:
Galectin-1 [1] = molecular target: T1, Galectin-1 (Homo sapiens (Human), UniProt P09382); conditions: T. Delaine, 2016; read-out: affinity to Galectin-1; cited from earlier work
Target sequence in this assay (P09382 whole entry, species assumed): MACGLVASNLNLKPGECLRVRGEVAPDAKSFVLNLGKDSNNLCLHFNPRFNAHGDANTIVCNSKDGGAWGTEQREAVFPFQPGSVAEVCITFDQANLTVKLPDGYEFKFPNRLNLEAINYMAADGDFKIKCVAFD

Galectin-1 [2] = molecular target: T1, Galectin-1; assay: Fluorescence anisotropy assay, inhibition of galectin / fluorescein tagged saccharide probe interaction; type: binding
Target sequence in this assay (P09382 whole entry): as the sequence (P09382 whole entry, species assumed) above

Galectin-3 = Galectin-3 (Homo sapiens (Human), UniProt P17931); assay: as above; type: binding
Galectin-3, sequence (P17931 whole entry): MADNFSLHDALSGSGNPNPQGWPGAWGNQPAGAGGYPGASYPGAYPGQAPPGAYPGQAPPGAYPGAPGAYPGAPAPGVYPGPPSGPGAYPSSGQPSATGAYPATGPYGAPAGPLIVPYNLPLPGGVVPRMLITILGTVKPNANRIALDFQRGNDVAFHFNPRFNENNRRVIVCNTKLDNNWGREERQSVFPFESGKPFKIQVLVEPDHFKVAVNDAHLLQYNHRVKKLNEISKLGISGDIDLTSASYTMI
Experimental: Experimental Procedures (Evaluation of Kd Values)
The affinity of Example 1-33 for galectins were determined by a fluorescence anisotropy assay where the compound was used as an inhibitor of the interaction between galectin and a fluorescein tagged saccharide probe as described Sörme, P., Kahl-Knutsson, B., Huflejt, M., Nilsson, U. J., and Leffler H. (2004) Fluorescence polarization as an analytical tool to evaluate galectin-ligand interactions. Anal. Biochem. 334: 36-47, (Sörme et al., 2004) and Monovalent interactions of Galectin-1 By Salomonsson, Emma; Larumbe, Amaia; Tejler, Johan; Tullberg, Erik; Rydberg, Hanna; Sundin, Anders; Khabut, Areej; Frejd, Torbjorn; Lobsanov, Yuri D.; Rini, James M.; et al, From Biochemistry (2010), 49(44), 9518-9532, (Salomonsson et al., 2010).

galectins = conditions: cited from earlier work

Row | Compound | Kd (Galectin-1 [2]) [µM] | Kd (Galectin-3) [µM] | other results
1 | OCC1O[C@@H](SC2O[C@H](CO)C(O)C(n3cc(-c4ccsc4)nn3)[C@H]2O)C(O)C(n2cc(-c3ccsc3)nn2)[C@H]1O (stereo partly shown) |  |  | Kd (Galectin-1 [1]): < 0.01 µM
2 | O=C(O)c1ncc(Cl)cc1S[C@H]1O[C@H](CO)[C@H](O)[C@H](n2cc(-c3csc(O)n3)nn2)[C@H]1O [Example 28, 2-carboxy-5-chloropyridyl 3-deoxy-3-[4-(2-hydroxythiazol-4-yl)-1H-1,2,3-triazol-1-yl]-1-thio-α-D-galactopyranoside] | 0.046 | 5.7 | 
3 | OC[C@H]1O[C@H](Sc2cnc(C(F)(F)F)c(Br)c2)[C@H](O)[C@@H](n2cc(-c3nc(Cl)c(Cl)s3)nn2)[C@H]1O [Example 29, 5-Bromo-6-trifluoromethyl-pyridine-3-yl 3-deoxy-3-[4-(4,5-dichlorothiazol-2-yl)-1H-1,2,3-triazol-1-yl]-1-thio-α-D-galactopyranoside] | 0.39 | 0.069 | 
4 | OC[C@H]1O[C@H](Sc2cc(Cl)c(Cl)cc2F)[C@H](O)[C@@H](n2cc(-c3csc(O)n3)nn2)[C@H]1O [Example 31, 3,4-Dichloro-6-fluoro-phenyl 3-deoxy-3-[4-(2-hydroxythiazol-4-yl)-1H-1,2,3-triazol-1-yl]-1-thio-α-D-galactopyranoside] | 0.013 | 4.6 | 
5 | CN(C)C(=O)c1ccc(Cl)cc1S[C@H]1OC(CO)[C@H](O)[C@H](n2cc(-c3csc(O)n3)nn2)C1O (stereo partly drawn) [Example 32, 4-Chloro-N,N′-dimethylbenzamide-2-yl 3-deoxy-3-[4-(2-hydroxythiazol-4-yl)-1H-1,2,3-triazol-1-yl]-1-thio-α-D-galactopyranoside] | 0.044 | 2.1 | 
6 | CN(C)C(=O)c1ncc(Cl)cc1S[C@H]1OC(CO)[C@H](O)[C@H](n2cc(-c3csc(O)n3)nn2)C1O (stereo partly drawn) [Example 33, 5-Chloro-N,N′-dimethyl-picolinamide-3-yl 3-deoxy-3-[4-(2-hydroxythiazol-4-yl)-1H-1,2,3-triazol-1-yl]-1-thio-α-D-galactopyranoside] | 0.054 | 1.7 | 
7 | O=C[C@H](O)[C@@H](O)[C@@H](O)[C@H](O)CO [Galactose, D-galactose] |  |  | affinity relative to lactose (galectins; compared with lactose): 50-100 times lower
8 | OC[C@H]1O[C@@H](O[C@H]2[C@H](O)[C@@H](O)C(O)O[C@@H]2CO)[C@H](O)[C@@H](O)[C@H]1O (stereo partly shown) [Lactose] |  |  | Kd (galectins; Leffler, 2001, Leffler et al., 2004, read-out: Kd, all galectins): 100 to 1000 µM
